Data set [1] deals with T1, Oxysterols receptor LXR-alpha (Homo sapiens) (UniProt Q13133).
T1 sequence (whole entry): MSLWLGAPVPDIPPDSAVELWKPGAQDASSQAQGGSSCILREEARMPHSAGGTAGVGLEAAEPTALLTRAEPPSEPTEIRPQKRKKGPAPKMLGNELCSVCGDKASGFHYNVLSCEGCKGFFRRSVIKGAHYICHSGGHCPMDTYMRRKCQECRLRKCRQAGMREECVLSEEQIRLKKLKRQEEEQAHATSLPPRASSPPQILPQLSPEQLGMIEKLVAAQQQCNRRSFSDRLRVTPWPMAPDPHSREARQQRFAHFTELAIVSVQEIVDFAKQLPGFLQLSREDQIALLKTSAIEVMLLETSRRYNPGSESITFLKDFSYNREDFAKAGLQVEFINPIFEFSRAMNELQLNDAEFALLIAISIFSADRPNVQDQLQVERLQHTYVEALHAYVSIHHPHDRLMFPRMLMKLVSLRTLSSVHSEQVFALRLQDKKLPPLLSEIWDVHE
The data set is described as follows: Agonist activity at human LXRalpha-LBD transfected in HEK293T cells co-expressing Gal4-DBD assessed as increase in luciferase activity measured after 18 hrs by reporter gene assay. The following applies: filed as agonist, dose 1-10 µM. It is filed as cell-based. (In general: Reporter assays use an easily measured gene product as a stand-in for the process of interest.)

Data set [2] deals with T2, Liver X receptor (Homo sapiens) (UniProt Q13133+P55055). The data set can be described thus: Agonist activity at LXR in human THP-1 cells assessed as increase of ABCA1 mRNA expression level at 1 to 10 uM by RT-qPCR analysis. To be noted: filed as agonist, dose 1-10 µM. In kind it is cell-based. On the technique in general: Real-time PCR tracks product formation cycle by cycle.

The target in data set [3] is T2, Liver X receptor (Homo sapiens). The data set can be described thus: Agonist activity at LXR in human THP-1 cells assessed as increase of ABCG1 mRNA expression level at 1 to 10 uM by RT-qPCR analysis. It is filed as cell-based. The following applies: filed as agonist, dose 1-10 µM.
Data set [4] shares this target. The data set can be described thus: Agonist activity at LXR in cholesterol treated human THP-1 cells assessed as stimulation of plasma mediated cholesterol efflux at 5 uM pre incubated for 24 hrs followed by plasma addition measured after 6 hrs by liquid scintillation counting analysis. It is filed as cell-based. To be noted: filed as agonist.
In data set [5] the target is T3, Liver X receptor (Homo sapiens, UniProt Q13133+P55055).
T3 sequence (Q13133 whole entry): T1 sequence (whole entry)
T3 sequence (P55055 whole entry): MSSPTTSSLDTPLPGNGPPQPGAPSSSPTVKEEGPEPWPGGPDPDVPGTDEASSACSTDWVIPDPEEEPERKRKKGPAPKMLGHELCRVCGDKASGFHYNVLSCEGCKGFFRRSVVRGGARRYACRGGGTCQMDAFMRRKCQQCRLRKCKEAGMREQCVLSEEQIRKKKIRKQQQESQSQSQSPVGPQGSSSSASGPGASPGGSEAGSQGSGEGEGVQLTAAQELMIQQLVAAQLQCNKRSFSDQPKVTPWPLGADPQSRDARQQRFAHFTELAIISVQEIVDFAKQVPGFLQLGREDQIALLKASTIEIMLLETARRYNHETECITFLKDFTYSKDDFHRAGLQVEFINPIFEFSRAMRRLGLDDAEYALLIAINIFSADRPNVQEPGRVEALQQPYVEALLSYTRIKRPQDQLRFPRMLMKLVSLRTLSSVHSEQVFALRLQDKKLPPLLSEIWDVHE
The data set can be described thus: Agonist activity at LXR in human HepG2 cells assessed as increase in SREBF1 protein expression level at 1 to 10 uM measured after 72 hrs by Western blot analysis. It is filed as toxicity, cell-based. The following applies: hepg2, 72 h, dose 1-10 µM. For orientation: In western blotting, separated proteins are transferred to a membrane and probed.

In data set [6] the target is T3, Liver X receptor. The data set can be described thus: Agonist activity at LXR in human HepG2 cells assessed as reduction in SREBP1c proteolytic processing measured after 72 hrs by Western blot analysis. In kind it is toxicity, cell-based. To be noted: hepg2, 72 h, dose 1-10 µM.
The target of data set [7] is T4, Nuclear receptor ROR-gamma (Homo sapiens) (UniProt P51449).
T4 sequence (whole entry): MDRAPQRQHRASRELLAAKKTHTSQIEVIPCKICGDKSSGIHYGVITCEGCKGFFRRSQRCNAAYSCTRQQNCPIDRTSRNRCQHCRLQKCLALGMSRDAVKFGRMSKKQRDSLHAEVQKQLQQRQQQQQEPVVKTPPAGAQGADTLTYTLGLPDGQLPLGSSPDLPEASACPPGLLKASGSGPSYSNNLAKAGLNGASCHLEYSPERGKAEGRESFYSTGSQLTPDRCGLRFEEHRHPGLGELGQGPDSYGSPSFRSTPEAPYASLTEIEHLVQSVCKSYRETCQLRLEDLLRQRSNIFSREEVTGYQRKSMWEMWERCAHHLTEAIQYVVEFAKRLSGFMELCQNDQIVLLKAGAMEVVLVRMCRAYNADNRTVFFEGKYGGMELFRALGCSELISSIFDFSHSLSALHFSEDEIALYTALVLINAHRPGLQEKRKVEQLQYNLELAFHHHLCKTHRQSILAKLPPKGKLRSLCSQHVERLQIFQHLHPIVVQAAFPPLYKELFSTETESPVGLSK
The data set can be described thus: Activation at RORgamma (unknown origin).

Another data set concerns HEK-293T. The data set can be described thus: Cytotoxicity against HEK293T cells transfected with LXRalpha assessed as cell viability at >10 uM measured after 18 hrs by luciferase reporter gene assay. To be noted: human. It is filed as toxicity, cell-based.
The target of data set [8] is T5, Oxysterols receptor LXR-beta (Homo sapiens) (UniProt P55055).
T5 sequence (whole entry): T3 sequence (P55055 whole entry)
The data set is described as follows: Agonist activity at human LXRbeta-LBD transfected in HEK293T cells co-expressing Gal4-DBD assessed as increase in luciferase activity measured after 18 hrs by reporter gene assay. To be noted: filed as agonist, dose 1-10 µM. In kind it is cell-based.

Data set [9] concerns the target T6, Bile acid receptor (Homo sapiens) (UniProt Q96RI1).
T6 sequence (whole entry): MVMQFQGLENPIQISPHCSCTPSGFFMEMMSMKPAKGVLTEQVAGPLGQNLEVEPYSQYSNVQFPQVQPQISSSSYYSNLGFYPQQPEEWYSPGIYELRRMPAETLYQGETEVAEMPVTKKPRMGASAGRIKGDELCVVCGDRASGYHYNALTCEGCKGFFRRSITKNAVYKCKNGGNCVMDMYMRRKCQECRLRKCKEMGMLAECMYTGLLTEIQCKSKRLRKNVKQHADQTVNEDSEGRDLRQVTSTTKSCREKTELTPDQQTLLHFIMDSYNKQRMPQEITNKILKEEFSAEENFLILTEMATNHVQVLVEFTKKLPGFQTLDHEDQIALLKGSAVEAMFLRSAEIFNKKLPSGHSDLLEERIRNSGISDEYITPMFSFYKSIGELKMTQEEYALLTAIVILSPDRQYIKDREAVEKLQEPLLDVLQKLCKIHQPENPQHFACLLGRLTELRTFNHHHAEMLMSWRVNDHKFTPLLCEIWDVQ
The data set is described as follows: Activation at FXR (unknown origin).

Data set [10] deals with T2, Liver X receptor (Homo sapiens). The data set can be described thus: Agonist activity at LXR in human HepG2 cells assessed as increase of IDOL mRNA expression level at 10 uM by RT-qPCR analysis. In kind it is cell-based. To be noted: filed as agonist.
The target is the same in data set [11]. The data set is described as follows: Agonist activity at LXR in cholesterol treated human THP-1 cells assessed as stimulation of plasma mediated cholesterol efflux pre incubated for 24 hrs followed by plasma addition measured after 6 hrs by liquid scintillation counting analysis. It is filed as cell-based. The following applies: filed as agonist, dose 1-10 µM, time 30.0 hrs.

Data set [12] deals with T3, Liver X receptor. The data set is described as follows: Agonist activity at LXR in human HepG2 cells assessed as reduction in HMGCR mRNA expression measured after 72 hrs by RT-qPCR analysis. In kind it is toxicity, cell-based. To be noted: hepg2, 72 h, dose 1-10 µM.
For data set [13], the target named is T3, Liver X receptor. The data set can be described thus: Agonist activity at LXR in human HepG2 cells assessed as increase in SREBF1 mRNA expression level at 1 to 10 uM measured after 72 hrs by RT-qPCR analysis. The following applies: hepg2, 72 h, dose 1-10 µM. It is filed as toxicity, cell-based.
Data set [14] has as its target T7, Oxysterols receptor LXR-alpha (Homo sapiens, UniProt Q13133).
T7 sequence (Q13133 whole entry): T1 sequence (whole entry)
The data set can be described thus: Agonist activity at full length human LXRalpha transfected in HEK293T cells co-expressing ABCA1 assessed as increase in luciferase activity measured after 18 hrs by reporter gene assay. It is filed as cell-based.

Data set [15] relates to HepG2. The data set is described as follows: Effect on LDLR mRNA expression level in human HepG2 cells at 1 to 10 uM by RT-qPCR analysis. In kind it is functional, cell-based. To be noted: dose 1-10 µM.
For data set [16], the target named is T8, Oxysterols receptor LXR-beta (Homo sapiens, UniProt P55055).
T8 sequence (P55055 whole entry): T3 sequence (P55055 whole entry)
The data set is described as follows: Agonist activity at full length human LXRbeta transfected in HEK293T cells co-expressing ABCA1 assessed as increase in luciferase activity measured after 18 hrs by luciferase reporter gene assay. It is filed as cell-based.

Data set [17] deals with T2, Liver X receptor (Homo sapiens). The data set can be described thus: Agonist activity at LXR in human THP-1 cells assessed as increase of ABCA1 protein expression level at 1 to 10 uM by Western blot analysis. It is filed as cell-based. To be noted: filed as agonist, dose 1-10 µM.
The species named for the next data set is Homo sapiens. The data set is described as follows: Activation at RXR (unknown origin).
In data set [18] the test system is HepG2. The data set can be described thus: Effect on LDLR mRNA expression level in human HepG2 cells at 5 uM by RT-qPCR analysis. In kind it is functional, cell-based.
Data set [19] has as its target T3, Liver X receptor. The data set is described as follows: Agonist activity at LXR in human HepG2 cells assessed as reduction in SREBP1c proteolytic processing upto 10 uM measured after 72 hrs by Western blot analysis. It is filed as toxicity, cell-based. The following applies: hepg2, 72 h.
Data set [20] has as its target T3, Liver X receptor. The data set is described as follows: Agonist activity at LXR in human HepG2 cells assessed as reduction in HMGCR mRNA expression upto 10 uM measured after 72 hrs by RT-qPCR analysis. It is filed as toxicity, cell-based. The following applies: hepg2, 72 h.
The target in data set [21] is T3, Liver X receptor. The data set can be described thus: Agonist activity at LXR in human HepG2 cells assessed as increase in cellular lipid content at 1 uM measured after 72 hrs by Oil Red O staining based assay. It is filed as toxicity, cell-based. The following applies: hepg2, 72 h.
Data set [22] concerns HepG2. The data set can be described thus: Effect on LDLR mRNA expression level in human HepG2 cells at 1 uM by RT-qPCR analysis. It is filed as functional, cell-based.

The source made the active and inactive calls. The calls are words filed in the database; no cut-off is given here.

For orientation: EC50 means the concentration that produces a half-maximal response. For `CC(C)=C[C@@H]1C[C@@H]([C@@H]2CC[C@]3(C)C4=CC[C@H]5C(C)(C)C(=O)CC[C@]5(C)[C@H]4CC[C@@]23C)[C@H](O)O1`, the Activity entry in data set [1] was “Dose-Dependent Effect”; on Liver X receptor [5], “Not Active”; on Liver X receptor [6], “Dose-Dependent Effect”; with HEK-293T, “Toxic”; in [8], “Dose-Dependent Effect”; on Liver X receptor [12], “Dose-Dependent Effect”. Also, the Activity result at Liver X receptor [13] is “Not Active”. The result in [2], in [3], in data set [4], in data set [10], in data set [11] and in data set [17] was Active. Further, the result (in data set [7]; in data set [9]; in the data set on HepG2 [15]; in the data set filed under Homo sapiens) was inactive. Moreover, the EC50 came to 1600 nM in data set [14] and 5300 nM in [16].

On to `CC(C)CC[C@@H](O)[C@@H](C)[C@H]1CC[C@H]2[C@@H]3CC=C4C[C@@H](O)CC[C@]4(C)[C@H]3CC[C@]12C` [22(R)-HYDROXYCHOLESTEROL], for which the outcome with HepG2 [18] was inactive. Also, the results for the EC50 in [14] and in data set [16] were 1200 nM and 1500 nM, respectively. The values for the Activity entry at Liver X receptor [19] and at Liver X receptor [20] were “Not Active” and “Active”, respectively.

Take `O=C(O)Cc1cccc(OCCCN(Cc2cccc(C(F)(F)F)c2Cl)CC(c2ccccc2)c2ccccc2)c1`: at Liver X receptor [21], the Activity result is “Toxic”. Further, in the data set with HepG2 [22], the outcome was inactive.

These data come from ChEMBL document CHEMBL5370566, “Flindissone, a Limonoid Isolated from Trichilia prieuriana, Is an LXR Agonist” (J Nat Prod, 2023).
